In patent publication US20110092476A1, “Bicycloheteroaryl compounds as P2X7 modulators and uses thereof” (Renovis, Inc., priority 2006, published 2011):
In brackets after ≈: the same amount, converted by molar mass. Like-named read-outs stand apart in the source and are kept apart here.

Key:
[1] = Pharmacokinetic evaluation following intravenous and oral administration in rats (oral bioavailability); format: in vivo, rat; settings: male Sprague-Dawley rats, PO 1 to 5 mg/kg vs IV 1 mg/kg, AUCinf dose-normalized
Description: Male Sprague-Dawley rats are acclimatized for at least 24 hours prior to experiment initiation. During acclimation period, all animals receive food and water ad libitum. However, food but not water is removed from the animal's cages at least 12 hours before initiation of the experiment. During the first 3 hours of experimentation, the animals receive only water ad libitum. At least three animals each are tested for intravenous and oral dosage. For intravenous formulation, compounds were dissolved (0.25 to 1 mg/mL) in a mixture of 3% dimethyl sulfoxide, 40% PEG 400 and the rest percentage of 40% Captisol in water (w/v). The animals are weighed before dosing. The determined body weight is used to calculate the dose volume for each animal.
Dose volume (mL/kg)=1 mg/kg/formulation concentration (mg/mL)
In instances where the formulation concentrations were less than 0.5 mg/mL, the dosing volume is about 2 mL/kg.
PO rats are typically dosed through oral gavage following the same dose volume formula as IV to achieve a dose level of 1 to 5 mg/kg. […] About 250 uL of blood is obtained at each time point from the animal. Equal volumes of 0.9% normal saline are replaced to prevent dehydration. The whole blood samples are maintained on ice until centrifugation. Blood samples are then centrifuged at 14,000 rpm for 10 minutes at 4° C. and the upper plasma layer transferred into a clean vial and stored at −80° C. The resulting plasma samples are then analyzed by liquid chromatography-tandem mass spectrometry. Following the measurement of plasma samples and dosing solutions, plasma concentration-time curve is plotted. Plasma exposure is calculated as the area under the concentration-time curve extrapolated to time infinite (AUinf). The AUCinf is averaged and the oral bioavailability (% F) for individual animal is calculated as:
AUCinf (PO)/AUCinf (IV), normalized to their respective dose levels. The % F is reported as the mean % F of all animals dosed orally with the compound of the invention at the specified level (see Table 4 below).
For the purpose of Table 4, oral bioavailability of each compound is expressed as follows: […]

[2] = Half-life in human liver microsomes (HLM); settings: pH 7.4
Description: Test compounds (1 μM) are incubated with 3.3 mM MgCl2 and 0.78 mg/mL HLM (HL101) in 100 mM potassium phosphate buffer (pH 7.4) at 37° C. on the 96-deep well plate. The reaction mixture is split into two groups, a non-P450 and a P450 group. NADPH is only added to the reaction mixture of the P450 group. An aliquot of samples of P450 group is collected at 0, 10, 30, and 60 min time point, where 0 min time point indicated the time when NADPH is added into the reaction mixture of P450 group. […] Collected aliquots are extracted with acetonitrile solution containing an internal standard. […] The compound concentration in supernatant is measured by LC/MS/MS system.
The half-life value is obtained by plotting the natural logarithm of the peak area ratio of compounds/internal standard versus time. The slope of the line of best fit through the points yields the rate of metabolism (k). This is converted to a half-life value using following equations:

P2X7 receptor = biological target: T1, P2X7 receptor (Homo sapiens, UniProt Q99572); experiment: IL-1β release assay in differentiated THP-1 cells stimulated with BzATP (Example 9); format: cell-based; settings: differentiated THP-1 cells, BzATP 250 uM, read-out: IL-1β % Inhib. @ 0.3 or 0.1 uM
T1 construct: host or cells: THP-1 cells differentiated with LPS and IFN-γ
T1 sequence (Q99572 1-595): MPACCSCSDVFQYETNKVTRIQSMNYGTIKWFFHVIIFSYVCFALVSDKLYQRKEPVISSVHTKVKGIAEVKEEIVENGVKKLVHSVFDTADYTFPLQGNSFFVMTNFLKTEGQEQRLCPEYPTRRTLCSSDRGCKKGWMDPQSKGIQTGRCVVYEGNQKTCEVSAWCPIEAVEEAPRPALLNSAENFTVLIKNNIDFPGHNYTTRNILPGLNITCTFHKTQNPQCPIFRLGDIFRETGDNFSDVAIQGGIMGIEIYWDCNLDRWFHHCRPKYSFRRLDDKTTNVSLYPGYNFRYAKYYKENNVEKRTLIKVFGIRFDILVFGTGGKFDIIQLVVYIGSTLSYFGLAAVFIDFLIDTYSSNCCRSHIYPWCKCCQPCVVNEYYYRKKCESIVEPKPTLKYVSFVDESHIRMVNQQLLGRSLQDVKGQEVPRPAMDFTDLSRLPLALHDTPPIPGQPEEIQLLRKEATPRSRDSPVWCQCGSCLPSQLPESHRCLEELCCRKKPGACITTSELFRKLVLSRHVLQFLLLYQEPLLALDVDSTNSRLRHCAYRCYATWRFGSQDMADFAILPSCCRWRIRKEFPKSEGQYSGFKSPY
Procedure, shortened: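 THP-1 cells differentiated 16 h with 100 ng/mL LPS and 100 ng/mL IFN-γ, primed 2 h with fresh LPS, pretreated 30 min with compound, then stimulated 45 min with 250 uM BzATP (final). Supernatant IL-1β measured by ELISA; background-adjusted percent inhibition fitted to a four-parameter logistic for IC50.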

[3] = Determination of aqueous (kinetic) solubility; format: physicochemical; settings: aqueous buffer, kinetic from dmso stock, buffer pH 7.4
Description: The mixture was vortexed for 1 hour and equilibrated overnight at room temperature. The mixture was filtered through a saturated filter and the filtrate was analyzed by LC/MS/MS.
For the purpose of Table 5, solubility of each compound is expressed as follows: […]

Row | Compound | Oral Bioavailability F (%) [1] | half-life at 1 μM [2] [h] | inhibition at 0.3 µM (P2X7 receptor; 0.3 μM compound (symbols +)) [%] | solubility [3] [µM] | inhibition at 0.3 µM (P2X7 receptor; 0.3 μM compound, "+" symbols) [%]
1 | O=C(Cc1ccc(Cl)cc1)Nc1cccc2c(=O)n(CCO)ccc12 [Compound 4] | ++++ (>75% F) | 1.97 | 26 to 50 | – | –
2 | O=C(Cc1ccc(Cl)c(Cl)c1)Nc1cccc2c(=O)n(CCO)ccc12 [Compound 8] | + (0-25% F) | 1.41 | > 76 | – | –
3 | O=C(CCc1cc(C(F)(F)F)ccc1C(F)(F)F)Nc1cccc2c(=O)n(CCO)ccc12 [Compound 62] | + (0-25% F) | 0.37 | > 76 | < 25 | –
4 | O=C(Cc1ccc(Cl)c(C(F)(F)F)c1)Nc1cccc2c(=O)n(C(CO)CO)ccc12 [Compound 81, 2-(4-Chloro-3-trifluoromethyl-phenyl)-N-[2-(2-hydroxy-1-hydroxymethyl-ethyl)-1-oxo-1,2-dihydro-isoquinolin-5-yl]-acetamide] | + (0-25% F) | 0.72 | > 76 | > 75 | –
5 | C[C@@H](C(N)=O)n1ccc2c(NC(=O)Cc3ccc(Cl)c(Cl)c3)cccc2c1=O [Compound 236, (S)-2-{5-[2-(3,4-Dichloro-phenyl)-acetylamino]-1-oxo-1H-isoquinolin-2-yl}-propionamide] | + (0-25% F) | 0.97 | – | – | > 76
6 | C[C@H](C(N)=O)n1ccc2c(NC(=O)Cc3ccc(Cl)c(C(F)(F)F)c3)cccc2c1=O [Compound 238, (R)-2-{5-[2-(4-Chloro-3-trifluoromethyl-phenyl)-acetylamino]-1-oxo-1H-isoquinolin-2-yl}-propionamide] | + (0-25% F) | 1.59 | – | – | > 76
7 | CC(C(=O)Nc1cccc2c(=O)n([C@H](C)C(N)=O)ccc12)c1ccc(Cl)cc1 (stereo partly shown) [Compound 247] | ++ (26-50% F) | 2.11 | – | – | > 76
8 | CC(C(=O)Nc1cccc2c(=O)n([C@H](C)C(N)=O)ccc12)c1ccc(Cl)c(Cl)c1 (stereo partly shown) [Compound 254] | + (0-25% F) | 1.46 | – | 26 to 50 (≈ 11.2 to 21.6 µg/mL) | > 76
9 | C[C@H](C(N)=O)n1ccc2c(NC(=O)Cc3ccc(Cl)cc3)cccc2c1=O [Compound 256] | + (0-25% F) | 1.29 | – | < 25 | > 76
10 | C[C@H](C(=O)Nc1cccc2c(=O)n([C@H](C)C(N)=O)ccc12)c1ccc(Cl)cc1 [Compound 263] | ++ (26-50% F) | 2.31 | – | > 75 | > 76
11 | C[C@H](C(=O)Nc1cccc2c(=O)n([C@@H](C)C(N)=O)ccc12)c1ccc(Cl)cc1 [Compound 265] | ++ (26-50% F) | 0.97 | – | 26 to 50 (≈ 10.3 to 19.9 µg/mL) | > 76
12 | CC(C(=O)Nc1cccc2c(=O)n([C@H](C)C(N)=O)ccc12)c1ccc(Cl)c(C(F)(F)F)c1 (stereo partly drawn) [Compound 267, (R)-2-{5-[2-(4-Chloro-3-trifluoromethyl-phenyl)-propionylamino]-1-oxo-1H-isoquinolin-2-yl}-propionamide] | ++ (26-50% F) | 1.28 | – | 51 to 75 (≈ 23.8 to 34.9 µg/mL) | > 76
13 | C[C@H](C(=O)Nc1cccc2c(=O)n([C@H](C)C(N)=O)ccc12)c1ccc(Cl)c(Cl)c1 [Compound 268] | ++ (26-50% F) | 1.36 | – | 51 to 75 (≈ 22 to 32.4 µg/mL) | > 76
14 | C[C@H](C(N)=O)n1ccc2c(NC(=O)[C@H](C)c3ccc(Cl)c(Cl)c3)cccc2c1=O [Compound 269] | ++ (26-50% F) | 0.93 | – | 26 to 50 (≈ 11.2 to 21.6 µg/mL) | > 76
15 | C[C@H](C(N)=O)n1ccc2c(NC(=O)Cc3cccc(C(F)(F)F)c3F)cccc2c1=O [Compound 285] | ++ (26-50% F) | 1.24 | – | – | > 76
16 | C[C@H](C(N)=O)n1ccc2c(NC(=O)Cc3ccc(Cl)cc3F)cccc2c1=O [Compound 290] | + (0-25% F) | 1.64 | – | – | > 76
17 | C[C@H](C(N)=O)n1ccc2c(NC(=O)Cc3ccc(C(F)(F)F)cc3)cccc2c1=O [Compound 298] | + (0-25% F) | 3.35 | – | < 25 | > 76
18 | C[C@H](CO)n1ccc2c(NC(=O)Cc3ccc(C(F)(F)F)cc3)cccc2c1=O [Compound 319] | +++ (51-75% F) | 1.22 | – | – | > 76
19 | C[C@H](C(N)=O)n1ccc2c(NC(=O)Cc3cccc(C(F)(F)F)c3F)c(Cl)ccc2c1=O [Compound 342] | + (0-25% F) | 1.16 | – | – | > 76
20 | C[C@H](CO)n1ccc2c(NC(=O)Cc3ccc(Cl)c(C(F)(F)F)c3)cccc2c1=O [Compound 362] | ++ (26-50% F) | 0.97 | – | – | > 76
21 | C[C@H](CO)n1ccc2c(NC(=O)Cc3ccc(C(F)(F)F)cc3)c(Cl)ccc2c1=O [Compound 364] | ++++ (>75% F) | 3.15 | – | – | > 76
22 | CC(C)(CO)n1ccc2c(NC(=O)Cc3ccc(Cl)c(C(F)(F)F)c3)cccc2c1=O [Compound 369, 2-(4-Chloro-3-trifluoromethyl-phenyl)-N-[2-(2-hydroxy-1,1-dimethyl-ethyl)-1-oxo-1,2-dihydro-isoquinolin-5-yl]-acetamide] | + (0-25% F) | 0.55 | – | – | > 76
23 | C[C@H](CO)n1ccc2c(NC(=O)Cc3ccc(Cl)c(F)c3)c(Cl)ccc2c1=O [Compound 382] | +++ (51-75% F) | 1.34 | – | – | > 76
